Laboratory results as given in US20170112857A1, “Extended Release Aspirin” (New Haven Pharmaceuticals, Inc., priority 2015, published 2017).
Read-outs that look alike come from different tables or passages of the source.

How the values were obtained:
Type in all cases: in vivo, human
TxB2 = experiment: Urinary TxB2 excretion by GC/MS, basal and bradykinin-stimulated (Example 3); conditions: for Basal urinary TxB2 levels over placebo: 24 hours post-dosing; for Bradykinin-stimulated TxB2 levels over placebo: 4 hours post-dosing
Description: […] This protocol was repeated two additional times. […] Statistical analysis was done using Wilcoxon rank sum test for continuous variables and the Pearson test for categorical variables.

[1] = Single dose ASA pharmacokinetics, IR ASA vs. ER ASA; conditions: for AUC(0-t) / Cmax / Tmax: human, serum, oral, ASA
Description: Healthy adults were randomized to receive single doses of extended release ASA (“ER ASA”) at a dosage of 20 mg, 40 mg, 81 mg, 162.5 mg ER ASA (Durlaza®; New Haven Pharmaceuticals, Inc., North Haven, Conn.), or 325 mg, or immediate release ASA (“IR ASA”; aspirin powder USP; Letco Medical, Decatur, Ala.) at a dosage of 5 mg, 10 mg, 20 mg, 40 mg or 81 mg. […] For pharmacodynamic assessments, serum 11-dehydro-thromboxane (“TxB2”, a stable metabolite of thromboxane A2) levels were assessed using a validated enzyme immunoassay kit in serial blood samples collected 1 hour before dosing and at 0.5, 1, 2, 4, 8, 16, and 24 hours after drug administration.

platelet aggregation [2] = experiment: AA-, collagen- and ADP-induced light transmittance aggregometry (LTA); conditions: Visit 2 trough
Description: High platelet reactivity has previously been implicated in incomplete inhibition during therapy with immediate release low-dose aspirin in patients with type II diabetes. The main study consisted of a run-in phase where subjects were administered 81 mg, everyday (“QD”), of immediate release acetylsalicylic acid (“IR ASA”) for 7-28 days. […] During Visits 2 and 5 subjects were subjected to the following tests: (1) platelet aggregation measurements (a) AA induced, (b) collagen induced, and (c) Multiplate®; […] During Visits 3 and 6 subjects were subjected to the following tests: (1) platelet aggregation measurements (a) AA induced, (b) collagen induced, and (c) Multiplate®; […] An increase in platelet aggregation ([…], or […] or […]) by more than 15% with either agonists (i.e., arachidonic acid or collagen) is considered a significant loss of aspirin effect over 24 hours. […] For this study the trough level data are from the following timepoints: (1) for 81 mg-the data at Visit 2; […]

[3] = tested on: platelet aggregation / clot strength; experiment: Plateletmapping assay (TEG-6S analyzer); conditions: Visit 2 trough
Description: The […]® assay ([…] is a registered trademark of Haemoscope Corp.) was conducted using a TEG®-6S analyzer (TEG is a registered trademark of Haemoscope Corp.) and results included parameters: […] For summary purposes the change in each parameter over 24 hours is calculated by subtracting the result at 24 hours from the result at 1 hour (i.e., absolute difference). […] For this study the trough level data are from the following timepoints: (1) for 81 mg-the data at Visit 2; […]

platelet aggregation [4] = experiment: Multiplate platelet aggregation; conditions: Visit 2 trough
Description: The main study consisted of a run-in phase where subjects were administered 81 mg, everyday (“QD”), of immediate release acetylsalicylic acid (“IR ASA”) for 7-28 days. […] During Visits 2 and 5 subjects were subjected to the following tests: (1) platelet aggregation measurements (a) AA induced, (b) collagen induced, and (c) Multiplate®; […] During Visits 3 and 6 subjects were subjected to the following tests: (1) platelet aggregation measurements (a) AA induced, (b) collagen induced, and (c) Multiplate®; […] For this study the trough level data are from the following timepoints: (1) for 81 mg—the data at Visit 2; […]

[5] = single dose 5 mg, healthy adults
[6] = single dose 10 mg, healthy adults
[7] = single dose 20 mg, healthy adults
[8] = single dose 40 mg, healthy adults
[9] = single dose 81 mg, healthy adults
[10] = 81 mg IR, subjects compared with Visit 6 (sub-study)

SMILES: CC(=O)Oc1ccccc1C(=O)O [IR ASA, acetylsalicylic acid]
- Basal urinary TxB2 levels over placebo (TxB2; 81 mg daily for 1 week): significantly reduced
- dose dependence of the effect on TxB2 synthesis (TxB2; 81 mg vs 162.5 mg): not seen
- Bradykinin-stimulated TxB2 levels over placebo (TxB2; 81 mg): significantly reduced
- Basal urinary TxB2 levels over placebo (TxB2; 162.5 mg daily for 1 week): significantly reduced
- Bradykinin-stimulated TxB2 levels over placebo (TxB2; 162.5 mg): significantly reduced
- selectivity for basal TxB2 production over prostacyclin production (TxB2; doses of 81 and 162.5 mg/d): selectively inhibit basal TxB2 production over prostacyclin production
- time required to reach the maximum concentration of ASA ([1]; all doses, single dose, healthy adults): 1 to 2 h
- AUC(0-t) ([1]; 5 mg, single dose 5 mg, healthy adults, read-out: AUClast): 26.8 ng·h/mL
- AUC(0-t) ([1]; 10 mg, single dose 10 mg, healthy adults, read-out: AUC0-8): 136 ng·h/mL
- AUC(0-t) ([1]; 10 mg, single dose 10 mg, healthy adults, read-out: AUClast): 74.9 ng·h/mL
- AUC(0-t) ([1]; 20 mg, single dose 20 mg, healthy adults, read-out: AUC0-8): 366 ng·h/mL
- AUC(0-t) ([1]; 20 mg, single dose 20 mg, healthy adults, read-out: AUClast): 148 ng·h/mL
- AUC(0-t) ([1]; 40 mg, single dose 40 mg, healthy adults, read-out: AUClast): 384 ng·h/mL
- AUC(0-t) ([1]; 81 mg, single dose 81 mg, healthy adults, read-out: AUClast): 865 ng·h/mL
- Cmax [1, 5]: 25.1 ng/mL
- Tmax [1, 5]: 1.2 h
- Cmax [1, 6]: 63.9 ng/mL
- Tmax [1, 6]: 1.5 h
- Cmax [1, 7]: 123 ng/mL
- Tmax [1, 7]: 1.6 h
- Cmax [1, 8]: 228 ng/mL
- Tmax [1, 8]: 1.4 h
- Cmax [1, 9]: 504 ng/mL
- Tmax [1, 9]: 1.4 h
- time period over which serum concentrations of ASA were maintained ([1]; single dose, 8 hours = sampling interval evaluated): 6 h
- LTA (%) 2 μg/mL Collagen (Final) (platelet aggregation [2]; 81 mg IR QD, main study): 54 ± 25%
- LTA (%) 2 μg/mL Collagen (Max) (platelet aggregation [2]; 81 mg IR QD, main study): 57 ± 24%
- LTA (%) 4 μg/mL Collagen (Final) (platelet aggregation [2]; 81 mg IR QD, main study): 65 ± 20%
- LTA (%) 4 μg/mL Collagen (Max) (platelet aggregation [2]; 81 mg IR QD, main study): 66 ± 21%
- LTA (%) 5 μM ADP (Final) (platelet aggregation [2]; 81 mg IR QD, main study): 50 ± 17%
- LTA (%) 5 μM ADP (Max) (platelet aggregation [2]; 81 mg IR QD, main study): 59 ± 14%
- LTA (%) 1 mM AA (Max) (platelet aggregation [2]; 81 mg IR QD, main study): 5 ± 12%
- LTA (%) 2 mM AA (Final), first line so labelled (r8) (platelet aggregation [2]; 81 mg IR QD, main study): 5 ± 12%
- LTA (%) 2 mM AA (Final), second line (r10) (platelet aggregation [2]; 81 mg IR QD, main study): 6 ± 13%
- LTA (%) 2 mM AA (Max) (platelet aggregation [2]; 81 mg IR QD, main study): 7 ± 14%
- LTA (%) 2 μg/mL Collagen (Final) (platelet aggregation [2]; [10]): 67 ± 12%
- LTA (%) 2 μg/mL Collagen (Max) (platelet aggregation [2]; [10]): 68 ± 11%
- LTA (%) 4 μg/mL Collagen (Final) (platelet aggregation [2]; [10]): 71 ± 13%
- LTA (%) 4 μg/mL Collagen (Max) (platelet aggregation [2]; [10]): 73 ± 12%
- LTA (%) 5 μM ADP (Final) (platelet aggregation [2]; [10]): 52 ± 14%
- LTA (%) 5 μM ADP (Max) (platelet aggregation [2]; [10]): 61 ± 10%
- LTA (%) 1 mM AA (Max) (platelet aggregation [2]; [10]): 4 ± 2%
- LTA (%) 2 mM AA (Final), first line so labelled (r8) (platelet aggregation [2]; [10]): 3 ± 2%
- LTA (%) 2 mM AA (Final), second line (r10) (platelet aggregation [2]; [10]): 3 ± 2%
- LTA (%) 2 mM AA (Max) (platelet aggregation [2]; [10]): 4 ± 2%
- TEG PlateletMapping AA Aggregation ([3]; 81 mg IR QD, main study): 48 ± 29
- TEG PlateletMapping ADP Aggregation ([3]; 81 mg IR QD, main study): 74 ± 25
- TEG PlateletMapping MA (clot strength, mm) ([3]; 81 mg IR QD, main study): 65 ± 5 mm
- TEG PlateletMapping MA-AA (mm) ([3]; 81 mg IR QD, main study): 39 ± 15 mm
- TEG PlateletMapping MA-ADP (mm) ([3]; 81 mg IR QD, main study): 50 ± 18 mm
- TEG PlateletMapping MA-fibrin (mm) ([3]; 81 mg IR QD, main study): 17 ± 11 mm
- TEG PlateletMapping R (Clotting time, min) ([3]; 81 mg IR QD, main study): 6.8 ± 1.5 min
- TEG PlateletMapping AA Aggregation [3, 10]: 75 ± 17
- TEG PlateletMapping ADP Aggregation [3, 10]: 73 ± 21
- TEG PlateletMapping MA (clot strength, mm) [3, 10]: 64 ± 3 mm
- TEG PlateletMapping MA-AA (mm) [3, 10]: 54 ± 9 mm
- TEG PlateletMapping MA-ADP (mm) [3, 10]: 52 ± 11 mm
- TEG PlateletMapping MA-fibrin (mm) [3, 10]: 24 ± 12 mm
- TEG PlateletMapping R (Clotting time, min) [3, 10]: 7.1 ± 0.7 min
- MultiPlate (AU) AA (platelet aggregation [4]; 81 mg IR QD, main study): 17 ± 14 AU
- MultiPlate (AU) ADP (platelet aggregation [4]; 81 mg IR QD, main study): 70 ± 24 AU
- MultiPlate (AU) Collagen (platelet aggregation [4]; 81 mg IR QD, main study): 36 ± 17 AU
- MultiPlate (AU) AA (platelet aggregation [4]; [10]): 24 ± 13 AU
- MultiPlate (AU) ADP (platelet aggregation [4]; [10]): 77 ± 15 AU
- MultiPlate (AU) Collagen (platelet aggregation [4]; [10]): 47 ± 18 AU
